# In patent US20120076899A1, “SHELF STABLE MONATIN SWEETENED BEVERAGE” (Cargill, Incorporated, priority 2009, published 2012):
# Assay: Total indole concentrations following sunlight exposure
# Assay type: physicochemical
# Procedure: Synthetic R,R-monatin containing approximately 95.4% R,R-monatin monopotassium salt (dry basis) was obtained from CSIR (Modderfontein, South Africa). About 39 mg/L of this monatin was placed in a buffered solution at a pH of about 2.8-3.0 comprising 9 mM citric acid-trisodium citrate in high purity water and preserved with about 150 mg/L sodium benzoate. To some samples 200 ppm SANMELIN™ AO-3000 enzymatically modified isoquercitrin (EMIQ) (San-Ei Gen F.F.I.—Osaka, Japan) was added. Dissolved O2 levels were either increased by bubbling compressed air or reduced by bubbling N2 (99.9% purity) through these samples until the target O2 concentrations were achieved. Dissolved O2 levels were determined at 20° C. using a FOXY fluorescence quenching O2 analyzer from Ocean Optics (Dunedin, Fla.). Samples were stored in clear, glass ampules (˜10 mL) after O2 adjustment and heat-sealed to create an air-tight enclosure. The samples were then either stored in the dark, or exposed to sunlight. The exposure to sunlight is a much harsher environment for photosensitive compounds than the fluorescent light box because sunlight is many times brighter (˜100,000 Lux vs. ˜2200 Lux) and produces higher-energy, UV radiation. In order to test samples under these alternate conditions, samples were stored outside and exposed to sunlight where temperatures varied from about 5 to about 30 degrees C. and light intensity ranged from 0 at night to about 100,000 Lux on a clear day. Duplicate samples were analyzed weekly for total indole concentrations via the following method.
# Total indole (monatin and its intramolecular rearrangement products, monatin lactone and monatin lactam) concentrations were quantified by reversed phase HPLC at 40° C. using an Agilent Zorbax Eclipse C18 column with UV detection at 280 nm by PDA. The compounds were eluted by a gradient mobile phase consisting of (A) 1:1 methanol and acetonitrile (v:v) with 0.3% formic acid and 10 mM ammonium formate and (B) 0.3% formic acid in water with 10 mM ammonium formate. The integrated peak areas for the three (3) compounds were expressed in terms of monatin concentration (mg/L) based on a standard curve prepared for monatin. Thus, the extinction coefficient for monatin was applied to estimate concentrations of monatin lactone and monatin lactam since standards for these compounds were unavailable.
compound,measurement,setting,value
"NC(CC(O)(Cc1c[nH]c2ccccc12)C(=O)O)C(=O)O (centres unmarked) [R,R-monatin, 2-hydroxy-2-(indol-3-ylmethyl)-4-aminoglutaric acid]",Total Indole Concentration,"8.3 mg/L O2, 0 ppm EMIQ, Dark, 0 d",38.5 mg/L
same,Total Indole Concentration,"8.3 mg/L O2, 0 ppm EMIQ, Dark, 7 d",39.4 mg/L
same,Total Indole Concentration,"8.3 mg/L O2, 0 ppm EMIQ, Dark, 14 d",38.0 mg/L
same,Total Indole Concentration,"8.3 mg/L O2, 0 ppm EMIQ, Dark, 21 d",36.9 mg/L
same,Total Indole Concentration,"8.3 mg/L O2, 0 ppm EMIQ, Dark, 28 d",39.1 mg/L
same,Total Indole Concentration,"8.3 mg/L O2, 0 ppm EMIQ, Light (sunlight), 0 d",38.5 mg/L
same,Total Indole Concentration,"8.3 mg/L O2, 0 ppm EMIQ, Light (sunlight), 7 d",0.0 mg/L
same,Total Indole Concentration,"8.3 mg/L O2, 0 ppm EMIQ, Light (sunlight), 14 d",0.0 mg/L
same,Total Indole Concentration,"8.3 mg/L O2, 0 ppm EMIQ, Light (sunlight), 21 d",0.0 mg/L
same,Total Indole Concentration,"8.3 mg/L O2, 0 ppm EMIQ, Light (sunlight), 28 d",0.0 mg/L
same,Total Indole Concentration,"<0.5 mg/L O2, 0 ppm EMIQ, Light (sunlight), 0 d",38.5 mg/L
same,Total Indole Concentration,"<0.5 mg/L O2, 0 ppm EMIQ, Light (sunlight), 7 d",39.7 mg/L
same,Total Indole Concentration,"<0.5 mg/L O2, 0 ppm EMIQ, Light (sunlight), 14 d",34.4 mg/L
same,Total Indole Concentration,"<0.5 mg/L O2, 0 ppm EMIQ, Light (sunlight), 21 d",32.0 mg/L
same,Total Indole Concentration,"<0.5 mg/L O2, 0 ppm EMIQ, Light (sunlight), 28 d",30.6 mg/L
same,Total Indole Concentration,"<0.5 mg/L O2, 200 ppm EMIQ, Light (sunlight), 0 d",38.5 mg/L
same,Total Indole Concentration,"<0.5 mg/L O2, 200 ppm EMIQ, Light (sunlight), 7 d",36.0 mg/L
same,Total Indole Concentration,"<0.5 mg/L O2, 200 ppm EMIQ, Light (sunlight), 14 d",38.4 mg/L
same,Total Indole Concentration,"<0.5 mg/L O2, 200 ppm EMIQ, Light (sunlight), 21 d",32.8 mg/L
same,Total Indole Concentration,"<0.5 mg/L O2, 200 ppm EMIQ, Light (sunlight), 28 d",36.7 mg/L
